In EP4667463A1, “DOMIDE MOLECULAR GLUE DERIVATIVE AND USE THEREOF” (CSPC Megalith Biopharmaceutical Co., Ltd., priority 2023, dated 2024):

Assays:
NCI-H929 = assay: In vitro anti-tumor activity of molecular glue compounds, CellTiter-Lumi cell viability assay; format: cell-based; conditions: Homo sapiens; NCI-H929 cells, 96 h incubation; read-out: Cell inhibitory activity (IC50 values) NCI-H929
Protocol: (§1) Different tumor cells were all commercially available and used for evaluating the anti-tumor inhibitory activity of the compounds of the present disclosure. Various tumor cells were cultured until the cell confluency reached 80%-90%, with cell viability above 90% as determined by trypan blue exclusion. Then, the cells were plated. Specifically, after cell density optimization, 100 µL of each of the cell suspensions of HL-60 and SK-BR-3 cells (cell density: 3000 cells/well), Romas cells (cell density: 6000 cells/well), NCI-H929 cells (cell density: 4000 cells/well), and NCI-H82 cells (cell density: 5000 cells/well) was plated in a BeyoGold™ ultra-low attachment black clear-bottom 96-well plate (Cat. No.: FULA965-24pcs), and the plate was incubated overnight. The next day, after the adherent cells were adhered to the wall and suspension cells requiring aggregation were aggregated, 50 µL of culture medium was aspirated from each well of the 96-well plate. Then, the compounds diluted with the corresponding culture media were added. Specifically, the compounds were serially diluted at a 5-fold gradient starting from the highest concentration of 1 µM, with a final DMSO concentration of 1%o, and the test compounds were then added to the cell culture plate. The plate was incubated in an incubator at 37 °C with 5% carbon dioxide for 96 h. Before measurement, the CellTiter-Lumi™ luminescent cell viability assay reagent was equilibrated to room temperature in the dark. Then, 50 µL of the CellTiter-Lumi™ (Cat. No.: C0065XL) cell viability assay reagent was added to each well of the 96-well plate. The plate was shaken in the dark on a shaker at 300 rpm for 10 min to ensure complete cell lysis. After the reaction was completed, the luminescence was measured on a multi-mode microplate reader. The cell inhibition rate was determined according to the luminescence. Then, a cell viability curve was generated by Graphpad Prism 8.0, and the IC50 values were calculated. The compounds of the present disclosure were tested for activity by the method described above. Table 1. Cell inhibitory activity (IC50 values)

NCI-H82 = assay: as above; format: cell-based; conditions: Homo sapiens; NCI-H82 cells, 96 h incubation; read-out: Cell inhibitory activity (IC50 values) NCI-H82
Protocol: as §1

HL-60 = assay: as above; format: cell-based; conditions: Homo sapiens; HL-60 cells, 96 h incubation; read-out: Cell inhibitory activity (IC50 values) HL-60
Protocol: as §1

SK-BR-3 = assay: as above; format: cell-based; conditions: Homo sapiens; SK-BR-3 cells, 96 h incubation; read-out: Cell inhibitory activity (IC50 values) SK-BR-3
Protocol: as §1

Romas = assay: as above; format: cell-based; conditions: Romas cells, 96 h incubation; read-out: Cell inhibitory activity (IC50 values) Romas
Protocol: as §1

[1] = Metabolic stability in liver microsomes; conditions: Monkey liver microsomes, after 60 min of incubation
Protocol: (§2) The final concentration of the substrate in the incubation system was 1 µM, and the incubation time was 60 min. Sampling was performed at 0 min, 5 min, 15 min, 30 min, and 60 min. The reaction was stopped with glacial acetonitrile containing an internal standard (testosterone-d3 at a concentration of 10 ng/mL). Verapamil was used as a positive control. […] The natural logarithm of the remaining percentage was subjected to linear fitting with time to determine the elimination rate constant (k).

in vitro [2] = conditions: rat, microsomes
Protocol: as §2

[3] = Metabolic stability in liver microsomes; conditions: Dog liver microsomes, after 60 min of incubation
Protocol: as §2

in vitro [4] = conditions: monkey, microsomes
Protocol: as §2

[5] = Metabolic stability in liver microsomes; conditions: Rat liver microsomes, after 60 min of incubation
Protocol: as §2

[6] = Metabolic stability in liver microsomes; conditions: Mouse liver microsomes, after 60 min of incubation
[7] = Metabolic stability in liver microsomes; conditions: Human liver microsomes, after 60 min of incubation
Protocol: as §2

in vitro [8] = conditions: human, microsomes
Protocol: as §2

| IC50 (NCI-H929) [µM] | IC50 (NCI-H82) [µM] | IC50 (HL-60) [µM] | IC50 (SK-BR-3) [µM] | IC50 (Romas) [µM] | Structure (SMILES) | further results |
| --- | --- | --- | --- | --- | --- | --- |
| < 0.01 | 0.01 to 0.05 | < 0.01 | 0.01 to 0.05 | 0.01 to 0.05 | O=C1CCC(N2Cc3cc(CNC(=O)Nc4ccc(COCCC5CCCNC5)c(Cl)c4)ccc3C2=O)C(=O)N1 (stereo not shown) [Compound B9] |  |
| < 0.01 | 0.01 to 0.05 | < 0.01 | 0.01 to 0.05 | 0.01 to 0.05 | O=C1CCC(N2Cc3cc(CNC(=O)Nc4ccc(CCCOC5CNCC6CCCCC65)c(Cl)c4)ccc3C2=O)C(=O)N1 (stereo not shown) [Compound B70] |  |
| 0.01 to 0.05 | > 0.1 | < 0.01 | 0.05 to 0.1 | 0.05 to 0.1 | O=C1CCC(N2Cc3cc(CNC(=O)Nc4ccc(CCOCCNC5CCCCC5)c(Cl)c4)ccc3C2=O)C(=O)N1 (stereo not shown) [Compound B46] |  |
| 0.01 to 0.05 | > 0.1 | 0.01 to 0.05 | 0.05 to 0.1 | 0.05 to 0.1 | CNCCOCCC1(c2ccc(NC(=O)NCc3ccc4c(c3)CN(C3CCC(=O)NC3=O)C4=O)cc2Cl)CCCCC1 (stereo not shown) [Compound B51] |  |
| 0.01 to 0.05 | > 0.1 | < 0.01 | 0.01 to 0.05 | 0.01 to 0.05 | O=C1CCC(N2Cc3cc(CNC(=O)Nc4ccc(CCOCCC5CCCNC5)c(Cl)c4)ccc3C2=O)C(=O)N1 (stereo not shown) [Compound B15] |  |
| < 0.01 | 0.01 to 0.05 | < 0.01 | 0.01 to 0.05 | < 0.01 | O=C1CCC(N2Cc3cc(CNC(=O)Nc4ccc(CCOCC5CCCNC5)c(Cl)c4)ccc3C2=O)C(=O)N1 (stereo not shown) [Compound B14] |  |
| 0.01 to 0.05 | 0.01 to 0.05 | 0.01 to 0.05 | 0.01 to 0.05 | 0.01 to 0.05 | O=C1CCC(N2Cc3cc(CNC(=O)Nc4ccc(COCC5CCCNC5)c(Cl)c4)ccc3C2=O)C(=O)N1 (stereo not shown) [Compound B8] |  |
| < 0.01 | 0.01 to 0.05 | < 0.01 | < 0.01 | < 0.01 | CNC1COCC(OCCc2ccc(NC(=O)NCc3ccc4c(c3)CN(C3CCC(=O)NC3=O)C4=O)cc2Cl)C1 (stereo not shown) [Compound B44] |  |
| < 0.01 | 0.01 to 0.05 | < 0.01 | < 0.01 | < 0.01 | O=C1CCC(N2Cc3cc(CNC(=O)Nc4ccc(CCCOCC5CCCNC5)c(Cl)c4)ccc3C2=O)C(=O)N1 (stereo not shown) [Compound B20] |  |
| 0.01 to 0.05 | 0.01 to 0.05 | 0.01 to 0.05 | 0.01 to 0.05 | 0.01 to 0.05 | O=C1CCC(N2Cc3cc(CNC(=O)Nc4ccc(COC5CCCNC5)c(Cl)c4)ccc3C2=O)C(=O)N1 (stereo not shown) [Compound B7] |  |
| < 0.01 | 0.01 to 0.05 | < 0.01 | < 0.01 | < 0.01 | O=C1CCC(N2Cc3cc(CNC(=O)Nc4ccc(CCCOC5CCNC5)c(Cl)c4)ccc3C2=O)C(=O)N1 (stereo not shown) [Compound B64] |  |
| < 0.01 | 0.01 to 0.05 | < 0.01 | < 0.01 | < 0.01 | O=C1CCC(N2Cc3cc(CNC(=O)Nc4ccc(CCCOC5CC6(CNC6)C5)c(Cl)c4)ccc3C2=O)C(=O)N1 (stereo not shown) [Compound B68] |  |
| < 0.01 | 0.01 to 0.05 | < 0.01 | < 0.01 | < 0.01 | O=C1CCC(N2Cc3cc(CNC(=O)Nc4ccc(CCCCOC5CCCNC5)c(Cl)c4)ccc3C2=O)C(=O)N1 (stereo not shown) [Compound B25] |  |
| < 0.01 | 0.01 to 0.05 | < 0.01 | < 0.01 | < 0.01 | O=C1CCC(N2Cc3cc(CNC(=O)Nc4ccc(CCOCC5CNCCO5)c(Cl)c4)ccc3C2=O)C(=O)N1 (stereo not shown) [Compound B53] |  |
| 0.01 to 0.05 | > 0.1 | < 0.01 | 0.05 to 0.1 | 0.05 to 0.1 | O=C1CCC(N2Cc3cc(CNC(=O)Nc4ccc(CCOCCNC5CCOCC5)c(Cl)c4)ccc3C2=O)C(=O)N1 (stereo not shown) [Compound B48] |  |
| 0.01 to 0.05 | > 0.1 | < 0.01 | 0.01 to 0.05 | 0.01 to 0.05 | O=C1CCC(N2Cc3cc(CNC(=O)Nc4ccc(CCCOCCC5CCCNC5)c(Cl)c4)ccc3C2=O)C(=O)N1 (stereo not shown) [Compound B21] |  |
| < 0.01 | 0.01 to 0.05 | < 0.01 | 0.01 to 0.05 | 0.01 to 0.05 | CNCC1CCCC(OCCc2ccc(NC(=O)NCc3ccc4c(c3)CN(C3CCC(=O)NC3=O)C4=O)cc2Cl)C1 (stereo not shown) [Compound B54] |  |
| 0.01 to 0.05 | > 0.1 | 0.01 to 0.05 | > 0.1 | > 0.1 | O=C1CCC(N2Cc3cc(CNC(=O)Nc4ccc(CCOCCNC5CC5)c(Cl)c4)ccc3C2=O)C(=O)N1 (stereo not shown) [Compound B47] |  |
| < 0.01 | 0.01 to 0.05 | < 0.01 | 0.01 to 0.05 | 0.01 to 0.05 | O=C1CCC(N2Cc3cc(CNC(=O)Nc4ccc(CCOC5CCCNC5)c(Cl)c4)ccc3C2=O)C(=O)N1 (stereo not shown) [Compound B13] |  |
| < 0.01 | 0.01 to 0.05 | < 0.01 | < 0.01 | < 0.01 | CC1(OCCCc2ccc(NC(=O)NCc3ccc4c(c3)CN(C3CCC(=O)NC3=O)C4=O)cc2Cl)CCNCC1 (stereo not shown) [Compound B66] |  |
| < 0.01 | 0.01 to 0.05 | < 0.01 | < 0.01 | 0.01 to 0.05 | O=C1CCC(N2Cc3cc(CNC(=O)Nc4ccc(CCCOC5CNC5)c(Cl)c4)ccc3C2=O)C(=O)N1 (stereo not shown) [Compound B63] | Parent drug remaining % [1]: 101%; CLint scaled at 1 µM (in vitro [2]): 1.39 mL/min/kg; CLint scaled at 1 h, 1 µM (in vitro [2]): 1.35 mL/min/kg; half-life at 1 µM (in vitro [2]): 29.8 h; Parent drug remaining % [3]: 103%; CLint scaled at 1 µM (in vitro [4]): 0.257 mL/min/kg; CLint scaled at 1 h, 1 µM (in vitro [4]): 0.255 mL/min/kg; half-life at 1 µM (in vitro [4]): 132 h; Parent drug remaining % [5]: 94.9%; Parent drug remaining % [6]: 102%; Parent drug remaining % [7]: 98.8%; CLint scaled at 1 µM (in vitro [8]): 0.19 mL/min/kg; CLint scaled at 1 h, 1 µM (in vitro [8]): 0.189 mL/min/kg; half-life at 1 µM (in vitro [8]): 152 h |
| < 0.01 | 0.01 to 0.05 | < 0.01 | < 0.01 | < 0.01 | CC1(OCCCc2ccc(NC(=O)NCc3ccc4c(c3)CN(C3CCC(=O)NC3=O)C4=O)cc2Cl)CCCNC1 (stereo not shown) [Compound B67] |  |
| < 0.01 | 0.01 to 0.05 | < 0.01 | < 0.01 | < 0.01 | O=C1CCC(N2Cc3cc(CNC(=O)Nc4ccc(CCCOC5CCNC6CC65)c(Cl)c4)ccc3C2=O)C(=O)N1 (stereo not shown) [Compound B71] |  |
| < 0.01 | 0.01 to 0.05 | < 0.01 | 0.01 to 0.05 | 0.01 to 0.05 | O=C1CCC(N2Cc3cc(CNC(=O)Nc4ccc(CCCOC5CCNCC56CC6)c(Cl)c4)ccc3C2=O)C(=O)N1 (stereo not shown) [Compound B72] |  |
| < 0.01 | 0.01 to 0.05 | < 0.01 | < 0.01 | < 0.01 | CNC1CCCC(OCCc2ccc(NC(=O)NCc3ccc4c(c3)CN(C3CCC(=O)NC3=O)C4=O)cc2Cl)C1 (stereo not shown) [Compound B43] |  |
| < 0.01 | > 0.1 | 0.01 to 0.05 | 0.01 to 0.05 | 0.01 to 0.05 | O=C1CCC(N2Cc3cc(CNC(=O)Nc4ccc(COCCCC5CCCNC5)c(Cl)c4)ccc3C2=O)C(=O)N1 (stereo not shown) [Compound B10] |  |
| < 0.01 | 0.01 to 0.05 | < 0.01 | < 0.01 | < 0.01 | O=C1CCC(N2Cc3cc(CNC(=O)Nc4ccc(CCCOCC5CCCN5)c(Cl)c4)ccc3C2=O)C(=O)N1 (stereo not shown) [Compound B65] |  |
| < 0.01 | 0.01 to 0.05 | < 0.01 | < 0.01 | < 0.01 | CNCC1(COCCc2ccc(NC(=O)NCc3ccc4c(c3)CN(C3CCC(=O)NC3=O)C4=O)cc2Cl)CCCCC1 (stereo not shown) [Compound B45] |  |
